Experimental data taken from article PMC7077990 (eLife, 2020).

Key:
[1] = target: T1, mitochondrial pyruvate carrier MPC (Mus musculus, UniProt P63030+Q9D023); assay: mitochondrial pyruvate uptake in intact astrocytes, mito-PyronicSF fluorescence; assay type: cell-based; settings: 3 mM extracellular pyruvate; KRH buffer pH 7.4; 22–25°C
T1 construct: gene Mpc1; native carrier in intact cultured cortical astrocytes; read out as mitochondrial pyruvate uptake with mito-PyronicSF; subunit composition not determined
T1 sequence (P63030 2-109): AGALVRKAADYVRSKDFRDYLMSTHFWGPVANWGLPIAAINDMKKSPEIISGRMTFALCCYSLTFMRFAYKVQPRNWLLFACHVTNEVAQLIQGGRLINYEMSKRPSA
T1 sequence (Q9D023 1-127): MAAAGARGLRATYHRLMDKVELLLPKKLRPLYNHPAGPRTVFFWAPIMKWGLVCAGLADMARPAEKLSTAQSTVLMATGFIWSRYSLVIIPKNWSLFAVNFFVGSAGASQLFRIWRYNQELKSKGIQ

[2] = target: T1, mitochondrial pyruvate carrier MPC; assay: as above; assay type: cell-based; settings: 3 mM extracellular pyruvate; KRH buffer pH 7.4; 22–25°C; remark: listed apart in the source

SMILES	% uptake inhibition at 30 μM [1]	% uptake inhibition at 10 μM [2]
CN(CCOc1ccc(CC2SC(=O)NC2=O)cc1)c1ccccn1 (centres unmarked) [rosiglitazone]	67%	–
N#C/C(=C\c1cn(-c2ccccc2)c2ccccc12)C(=O)O [UK-5099]	–	69%
